Test results reported in PMC11944477, “Isolation of Allosteric Tryptase Inhibitor from Methanol Extract of Rhubarb and Enhancement of Its Tryptase Inhibitory Activity by Compounds That Were Screened by In Silico Screening” (Molecules, 2025).

Key:
asthma patients = tested on: asthma patients; set-up: method as in PMID 31371445, PMID 10197050; settings: clinical trial for asthma, abandoned; cited from earlier work
[1] = molecular target: T1, Tryptase from a human lung (Homo sapiens, UniProt P20231); assay: Measurement of inhibitory activity against tryptase (chromogenic substrate, absorbance at 415 nm); type: biochemical; settings: for IC50: inhibitor alone, 30 min preincubation, mean ± SE (n = 3)
T1 construct: Tryptase from a human lung was purchased from Sigma-Aldrich; purchased Sigma-Aldrich; host or cells: human lung tissue
T1 sequence (P20231 31-275): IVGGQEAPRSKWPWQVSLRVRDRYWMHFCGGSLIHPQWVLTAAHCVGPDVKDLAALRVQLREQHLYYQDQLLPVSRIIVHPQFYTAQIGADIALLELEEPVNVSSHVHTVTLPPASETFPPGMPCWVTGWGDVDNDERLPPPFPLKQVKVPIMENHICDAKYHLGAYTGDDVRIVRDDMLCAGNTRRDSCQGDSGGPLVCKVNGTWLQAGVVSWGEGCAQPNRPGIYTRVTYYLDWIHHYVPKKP
Experimental: (§1) Tryptase from a human lung was purchased from Sigma-Aldrich (St. Louis, MO, USA). The activity of tryptase was measured in 100 mM Tris-HCl buffer, pH 8.0, 100 mM glycerol, 0.02 mg/mL heparin sodium salt and 167 µM N-(p-Tosyl)-Gly-Pro-Lys 4-nitroanilide acetate salt (Sigma-Aldrich) as a substrate. Prior to addition of the substrate, the inhibitor was preincubated with the enzyme for 30 min at room temperature to allow the establishment of the enzyme–inhibitor complex. The substrate was then added, and after incubation for 30 min at 37 °C, the enzyme activity was measured from the increase in absorbance at 415 nm. The assays were performed using a 384-well microplate (CELLSTAR 384-well 781182, Greiner Bio-One, Kremsmünster, Austria) and absorbance was measured using a Powerscan 4 plate reader (DS pharma biomedical, Osaka, Japan). The inhibition ratio was calculated using the following equation: inhibition ratio %=1−AE+S+I−AS−AI+Ablank/AE+S−AS×100
A(x): absorbance intensity (415 nm); E: enzyme; S: substrate; I: inhibitor; blank: buffer.
(§2) The inhibitory activity against tryptase and the trypsin of leupeptin and PB8GG’ were measured at 0.1–100 µM, along with that of ellagitannins (carpinin B or carpinin E) isolated by our group at 20–50 µM. The inhibitory activity of a combination of various concentrations of PB8GG’ and 50 µM ellagitannins was also assayed.
(§3) Drawing curves of the inhibition and calculation of IC50 were performed by GraphPad Prism (Version 9.5.1).

[2] = molecular target: T2, Trypsin from a hog pancreas (Sus scrofa, UniProt P00761); assay: Measurement of inhibitory activity against trypsin (Bz-L-Arg-pNA substrate, absorbance at 415 nm); type: biochemical
T2 construct: Trypsin from a hog pancreas was purchased from Nacalai Tesque; purchased Nacalai Tesque; host or cells: hog pancreas
T2 sequence (P00761 9-231): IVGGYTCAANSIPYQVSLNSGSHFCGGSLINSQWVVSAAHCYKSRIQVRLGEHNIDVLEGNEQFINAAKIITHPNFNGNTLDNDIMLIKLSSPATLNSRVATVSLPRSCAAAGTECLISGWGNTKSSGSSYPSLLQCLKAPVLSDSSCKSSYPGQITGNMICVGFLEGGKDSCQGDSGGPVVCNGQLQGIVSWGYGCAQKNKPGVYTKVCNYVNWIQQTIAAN
Experimental: Trypsin from a hog pancreas was purchased from Nacalai Tesque, Kyoto, Japan. The activity of trypsin was measured in 200 mM Tris-HCl buffer, pH 7.8, 20 mM CaCl2 and 385 µM Benzoyl-L-arginine p-nitroanilide monohydrochloride (Bz-L-Arg-pNA·HCl) (Peptide Institute, Osaka, Japan) as a substrate. Prior to addition of the substrate, the inhibitor was preincubated with the enzyme for 10 min at room temperature to allow the establishment of the enzyme–inhibitor complex. The substrate was then added, and after incubation for 60 min at 37 °C, the enzyme activity was measured from the increase in absorbance at 415 nm. The assays were performed using a 384-well microplate and absorbance was measured using a Powerscan 4 plate reader.
as §2, §3

[3] = tested on: Tryptase from a human lung; assay: Kinetic analysis of tryptase inhibition (Lineweaver-Burk plot, Morrison's formula); type: biochemical
Experimental: as §1
Ki^app was calculated using the Morrison’s formula with GraphPad Prism. The mean value of Km from the kinetic analysis (described in next Section 4.5) was substituted as a constant in the formula.
For kinetic studies of tryptase, inhibition assays were carried out as described in the preceding paragraph. […] The kinetic parameters were calculated by curve fitting using GraphPad Prism.

| inhibition of tryptase activity ([1]; at 5 μM) | inhibition of tryptase activity ([1]; at the dose of 1–3 μM) | IC50 [1] [µM] | inhibitory activity against trypsin ([2]; tested at 0.1–100 µM) | mode of inhibition of tryptase ([3]; Lineweaver–Burk plot) | Ki ([3]; Morrison's formula, GraphPad Prism, read-out: inhibition constant Ki app) [µM] | IC50 ([2]; 10 min preincubation, mean ± SE (n = 3)) [µM] | Compound | adverse effect in treated patients (asthma patients) |
| --- | --- | --- | --- | --- | --- | --- | --- | --- |
| – | – | – | – | – | – | – | NC(=O)[C@@H]1CCCN1C(=O)[C@H](CCCN=C(N)N)NC(=O)c1ccc2ccccc2c1O [APC-366] | caused bronchospasms |
| clearly inhibited | very weakly inhibited | 7.78 ± 0.17 | little inhibitory activity | mixed-type non-competitive | 5.02 ± 0.99 | – | O=C(O[C@@H]1Cc2c(cc(O)c(C3c4c(O)cc(O)cc4O[C@H](c4ccc(O)c(O)c4)[C@H]3OC(=O)c3cc(O)c(O)c(O)c3)c2O)O[C@@H]1c1ccc(O)c(O)c1)c1cc(O)c(O)c(O)c1 (stereo partly drawn) [PB8GG’, procyanidin B8 3,3′-di-O-gallate] | – |
| – | – | 14.9 ± 1.25 | – | – | – | 8.4 ± 0.31 | CC(=O)N[C@@H](CC(C)C)C(=O)N[C@@H](CC(C)C)C(=O)N[C@H](C=O)CCCNC(=N)N [leupeptin, reference compound] | – |
